According to patent US8906925B2, “Pyrido[4,3-B]indoles containing rigid moieties” (Medivation Technologies, Inc., priority 2008, dated 2014):
Like-named read-outs stand apart in the source and are kept apart here.

Experiments:
histamine receptor H1 = histamine receptor H1 (Homo sapiens, UniProt P35367); assay: Histamine H1 radioligand binding ([3H]Pyrilamine); conditions: for inhibition at 1 µM: read-out: Histamine Binding (1 μM) H1, percent inhibition of specific binding, 1 μM
How it was run: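 Values are percent inhibition of specific [3H]pyrilamine (1.2 nM) binding with compounds at ≤1 μM (1% DMSO vehicle); 180 min incubation at 25 °C, pH 7.4 Tris buffer, on CHO-expressed human H1 receptor; 1 μM pyrilamine defined nonspecific binding, bound ligand counted after filtration.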

[1] = molecular target: T1, human recombinant serotonin (5-Hydroxytryptamine) 5-HT2C receptor (Homo sapiens, UniProt P28335); assay: Serotonin 5-HT2C radioligand binding ([3H]Mesulergine); conditions: for inhibition at 0.1 µM: compound at 0.1 μM; for inhibition at 0.1 µM / inhibition at 1 µM: read-out: Inhibition of ligand binding, Serotonin 5-HT2C (percent inhibition of specific binding)
T1 construct: expressed in transfected cells; host or cells: Chinese hamster ovary (CHO-K1) cells
T1 sequence (P28335 33-458): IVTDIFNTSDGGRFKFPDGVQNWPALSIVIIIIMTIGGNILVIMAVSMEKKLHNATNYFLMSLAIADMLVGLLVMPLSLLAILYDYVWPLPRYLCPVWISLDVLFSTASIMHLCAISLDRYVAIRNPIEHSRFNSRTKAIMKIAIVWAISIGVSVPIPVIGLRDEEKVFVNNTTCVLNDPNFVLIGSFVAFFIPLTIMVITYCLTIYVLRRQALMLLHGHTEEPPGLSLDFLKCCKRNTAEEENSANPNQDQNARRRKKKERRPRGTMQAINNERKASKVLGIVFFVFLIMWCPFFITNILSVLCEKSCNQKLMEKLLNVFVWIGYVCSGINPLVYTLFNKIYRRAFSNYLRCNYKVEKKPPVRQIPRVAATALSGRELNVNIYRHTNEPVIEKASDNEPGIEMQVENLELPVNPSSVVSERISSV
How it was run: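 Compounds tested at 1 μM or lower (1% DMSO vehicle) for displacement of 1 nM [3H]Mesulergine over 60 min at 25° C. Specific binding determined by filtration counting, with 1 μM Mianserin defining non-specific binding; values are percent inhibition.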

[2] = molecular target: T2, human recombinant adrenergic α1D receptor (Homo sapiens, UniProt P25100); assay: Adrenergic α1D radioligand binding ([3H]Prozosin); conditions: compound at 1 μM
T2 construct: expressed in transfected cells; host or cells: human embryonic kidney (HEK-293) cells
T2 sequence (P25100 1-572): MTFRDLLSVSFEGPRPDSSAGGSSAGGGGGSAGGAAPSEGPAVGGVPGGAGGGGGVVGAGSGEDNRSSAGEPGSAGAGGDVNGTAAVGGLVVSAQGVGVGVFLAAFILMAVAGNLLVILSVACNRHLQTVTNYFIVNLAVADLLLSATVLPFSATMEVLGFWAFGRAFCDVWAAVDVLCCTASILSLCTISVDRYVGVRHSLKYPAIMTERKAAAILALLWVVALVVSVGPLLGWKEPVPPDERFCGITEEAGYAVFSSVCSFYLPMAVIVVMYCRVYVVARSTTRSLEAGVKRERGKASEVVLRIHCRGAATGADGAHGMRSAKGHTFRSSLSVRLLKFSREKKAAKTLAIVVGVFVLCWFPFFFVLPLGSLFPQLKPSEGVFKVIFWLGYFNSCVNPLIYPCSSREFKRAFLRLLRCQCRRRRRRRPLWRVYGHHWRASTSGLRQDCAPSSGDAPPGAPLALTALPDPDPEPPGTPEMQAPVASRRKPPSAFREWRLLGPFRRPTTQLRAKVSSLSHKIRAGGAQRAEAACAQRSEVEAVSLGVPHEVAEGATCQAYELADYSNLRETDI
Protocol: Compounds of invention were incubated with 0.6 nM [^3H]Prozosin for 60 min. at 25° C. Non-specific binding was estimated in the presence of 10 μM phentolamine. Receptor proteins were filtered and washed, the filters were then counted to determine [^3H]Prozosin specifically bound. Compounds were screened at 1 μM or lower, using 1% DMSO as vehicle. Biochemical assay results are presented as the percent inhibition of specific binding in Table 9.

[3] = molecular target: T3, human recombinant histamine H2 receptor (Homo sapiens, UniProt P25021); assay: Histamine H2 radioligand binding ([125I]Aminopotentidine); conditions: read-out: Histamine Binding (1 μM) H2, percent inhibition of specific binding, 1 μM
T3 construct: expressed in transfected cells; host or cells: Chinese hamster ovary (CHO) K1 cells
T3 sequence (P25021 whole entry): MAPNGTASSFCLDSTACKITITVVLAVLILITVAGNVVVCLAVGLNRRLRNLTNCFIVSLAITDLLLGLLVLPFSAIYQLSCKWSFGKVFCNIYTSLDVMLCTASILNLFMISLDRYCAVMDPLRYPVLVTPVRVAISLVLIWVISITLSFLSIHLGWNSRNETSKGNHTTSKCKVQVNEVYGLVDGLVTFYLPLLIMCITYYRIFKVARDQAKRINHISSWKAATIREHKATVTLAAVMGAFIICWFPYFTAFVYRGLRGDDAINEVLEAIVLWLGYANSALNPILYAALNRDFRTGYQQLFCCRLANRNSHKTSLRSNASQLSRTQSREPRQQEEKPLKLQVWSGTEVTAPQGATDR
How it was run: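 Receptor source: human recombinant H2 in CHO-K1 cells, assayed in 50 mM phosphate pH 7.4. Competition against 0.1 nM [125I]aminopotentidine, 120 min, 25 °C; 3 μM tiotidine sets nonspecific binding, filter-bound counts give specific binding.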

[4] = percent inhibition of specific binding, read-out: Inhibition of ligand binding, Adrenergic α1D

histamine receptor H1, sequence (P35367 whole entry): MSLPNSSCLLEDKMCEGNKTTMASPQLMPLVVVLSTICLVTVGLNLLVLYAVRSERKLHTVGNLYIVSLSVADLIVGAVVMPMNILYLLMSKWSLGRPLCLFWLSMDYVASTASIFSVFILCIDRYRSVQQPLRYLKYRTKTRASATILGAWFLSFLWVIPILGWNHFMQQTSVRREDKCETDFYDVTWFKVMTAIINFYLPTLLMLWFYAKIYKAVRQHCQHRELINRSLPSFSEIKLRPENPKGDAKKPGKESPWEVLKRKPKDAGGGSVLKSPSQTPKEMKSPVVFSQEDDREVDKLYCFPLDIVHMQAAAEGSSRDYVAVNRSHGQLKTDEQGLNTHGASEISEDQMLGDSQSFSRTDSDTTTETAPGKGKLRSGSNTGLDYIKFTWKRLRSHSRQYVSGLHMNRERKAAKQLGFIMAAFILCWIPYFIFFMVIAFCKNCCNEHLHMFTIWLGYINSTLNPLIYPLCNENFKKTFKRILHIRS

| Compound | Histamine Binding (1 μM) H1, percent inhibition of specific binding (histamine receptor H1) [%] | inhibition at 1 µM (histamine receptor H1) [%] | inhibition at 0.1 µM [1] [%] | inhibition at 1 µM ([1]; compound at 1 μM) [%] | inhibition at 1 µM [2, 4] [%] | inhibition at 1 µM [3] [%] | Inhibition of ligand binding, Serotonin 5-HT2C (percent inhibition of specific binding) ([1]; compound at 1 μM, 1 µM) [%] | inhibition at 1 µM ([2]; read-out: Inhibition of ligand binding, Adrenergic α1D (percent inhibition of specific binding)) [%] |
| --- | --- | --- | --- | --- | --- | --- | --- | --- |
| CN1CCc2c(c3cc(Cl)ccc3n2CC(C)(O)c2ccc(F)cc2)C1 (stereo not drawn) [Compound 45, 1-(8-chloro-1,2,3,4-tetrahydro-2-methylpyrido[4,3-b]indol-5-yl)-2-(4-fluorophenyl)propan-2-ol] | 73 | 65 | 88 | 95 | 61 | 94 | – | – |
| C/C(=C\n1c2c(c3cc(Cl)ccc31)CN(C)CC2)c1ccccc1 [compound 106, (E)-8-chloro-2,3,4,5-tetrahydro-2-methyl-5-(2-phenylprop-1-enyl)-1H-pyrido[4,3-b]indole] | – | 84 | – | 98 | 92 | 99 | – | – |
| C/C(=C\n1c2c(c3cc(Cl)ccc31)CN(C)CC2)c1ccncc1 [Compound 90, (E)-8-chloro-2,3,4,5-tetrahydro-2-methyl-5-(2-(pyridin-4-yl)prop-1-enyl)-1H-pyrido[4,3-b]indole] | 59 | 48 | 85 | 97 | 93 | 60 | – | – |
| CN1CCc2c(c3cc(Cl)ccc3n2C/C(=C\CCO)c2ccc(F)cc2)C1 [Compound No. 348, (Z)-5-(8-chloro-2-methyl-3,4-dihydro-1H-pyrido[4,3-b]indol-5(2H)-yl)-4-(4-fluorophenyl)pent-3-en-1-ol] | 38 | 32 | – | 91 | 35 | 73 | 95 | – |
| C/C=C/C(=C\n1c2c(c3cc(Cl)ccc31)CN(C)CC2)c1ccc(F)cc1 [Compound 204, 8-chloro-5-((1E,3E)-2-(4-fluorophenyl)penta-1,3-dienyl)-2-methyl-2,3,4,5-tetrahydro-1H-pyrido[4,3-b]indole] | – | 55 | – | 102 | 67 | 101 | – | – |
| C=C(Cn1c2c(c3cc(C)ccc31)CN(C)CC2)c1ccc(F)cc1 [Compound 132, 5-(2-(4-fluorophenyl)allyl)-2,3,4,5-tetrahydro-2,8-dimethyl-1H-pyrido[4,3-b]indole] | – | 96 | – | 96 | 93 | 96 | – | – |
| C=C(Cn1c2c(c3cc(Cl)ccc31)CN(C)CC2)c1ccc(F)cc1 [Compound 128, 8-chloro-5-(2-(4-fluorophenyl)allyl)-2,3,4,5-tetrahydro-2-methyl-1H-pyrido[4,3-b]indole] | – | 98 | – | 100 | 91 | 100 | – | – |
| CN1CCc2c(c3cc(Cl)ccc3n2C/C=C/c2ccncc2)C1 [Compound 127, 8-chloro-2,3,4,5-tetrahydro-2-methyl-5-((E)-3-(pyridin-4-yl)allyl)-1H-pyrido[4,3-b]indole] | – | 100 | – | 72 | 46 | 22 | – | – |
| CCC(O)(Cn1c2c(c3cc(Cl)ccc31)CN(C)CC2)c1ccc(F)cc1 (stereo not drawn) [Compound 78, 1-(8-chloro-1,2,3,4-tetrahydro-2-methylpyrido[4,3-b]indol-5-yl)-2-(4-fluorophenyl)butan-2-ol] | 69 | 52 | 69 | 103 | 49 | 89 | – | – |
| Cc1ccc2c(c1)c1c(n2/C=C/c2ccccc2)CCN(C)C1 [Compound 202, (E)-2,8-dimethyl-5-styryl-2,3,4,5-tetrahydro-1H-pyrido[4,3-b]indole] | – | 100 | – | 101 | 98 | 97 | – | – |
| C=C(Cn1c2c(c3cc(Cl)ccc31)CN(C)CC2)c1ccc(OC)c(F)c1 [Compound 140, 8-chloro-5-(2-(3-fluoro-4-methoxyphenyl)allyl)-2,3,4,5-tetrahydro-2-methyl-1H-pyrido[4,3-b]indole] | – | 98 | – | 98 | 84 | 99 | – | – |
| CNC(=O)C/C(=C\n1c2c(c3cc(C)ccc31)CN(C)CC2)c1ccc(F)cc1 [Compound 207, (E)-4-(2,8-dimethyl-3,4-dihydro-1H-pyrido[4,3-b]indol-5(2H)-yl)-3-(4-fluorophenyl)-N-methylbut-3-enamide] | – | 15 | – | 97 | 100 | 46 | – | – |
| Cc1ccc2c(c1)c1c(n2CC(O)c2ccncc2)CCN(C)C1 (stereo not drawn) [Compound 180, 2-(2,8-dimethyl-3,4-dihydro-1H-pyrido[4,3-b]indol-5(2H)-yl)-1-(pyridin-4-yl)ethanol] | – | 84 | – | 74 | 60 | 24 | – | – |
| CN1CCc2c(c3cc(Cl)ccc3n2CC(O)c2cccnc2)C1 (stereo not drawn) [Compound 56, 2-(8-chloro-1,2,3,4-tetrahydro-2-methylpyrido[4,3-b]indol-5-yl)-1-(pyridin-3-yl)ethanol] | – | 90 | – | 38 | 43 | 26 | – | – |
| CN1CCc2c(c3cc(Cl)ccc3n2C2=C(c3cccnc3)CCCC2)C1 [Compound No. 166, 8-chloro-2-methyl-5-(2-(pyridin-3-yl)cyclohex-1-enyl)-2,3,4,5-tetrahydro-1H-pyrido[4,3-b]indole] | – | 14 | – | 46 | 28 | 56 | – | – |
| C=C(Cn1c2c(c3cc(Cl)ccc31)CN(C)CC2)c1ccc(C)nc1 [Compound 136, 8-chloro-2,3,4,5-tetrahydro-2-methyl-5-(2-(6-methylpyridin-3-yl)allyl)-1H-pyrido[4,3-b]indole] | – | 99 | – | 93 | 70 | 85 | – | – |
| Cc1ccc2c(c1)c1c(n2CC(C)(O)c2ccc(C)nc2)CCN(C)C1 (stereo not drawn) [Compound 52, 1-(1,2,3,4-tetrahydro-2,8-dimethylpyrido[4,3-b]indol-5-yl)-2-(6-methylpyridin-3-yl)propan-2-ol] | – | 46 | – | 87 | 39 | 51 | – | – |
| CN1CCc2c(c3cc(Cl)ccc3n2C#Cc2ccc(F)cc2)C1 [Compound No. 475, 8-chloro-5-((4-fluorophenyl)ethynyl)-2-methyl-2,3,4,5-tetrahydro-1H-pyrido[4,3-b]indole] | – | 34 | – | 96 | – | 91 | – | 91 |
| COc1ccc(C(C)(O)Cn2c3c(c4cc(C)ccc42)CN(C)CC3)cc1F (stereo not drawn) [Compound 173, 1-(2,8-dimethyl-3,4-dihydro-1H-pyrido[4,3-b]indol-5(2H)-yl)-2-(3-fluoro-4-methoxyphenyl)propan-2-ol] | – | 91 | – | 98 | 58 | 78 | – | – |
